Here are results for five cell lines from the supplement of paper PMC10307832.

Common to all, as to test: relative viability (nuclei count vs DMSO), 5 days (fraction); higher = more cells survive
Compound in the experiment “Doramapimod + Crizotinib”: Cc1ccc(-n2nc(C(C)(C)C)cc2NC(=O)Nc2ccc(OCCN3CCOCC3)c3ccccc23)cc1 [Doramapimod] + C[C@@H](Oc1cc(-c2cnn(C3CCNCC3)c2)cnc1N)c1c(Cl)ccc(F)c1Cl [Crizotinib] (partner 1 µM)
The procedure, abridged:
(§1)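 Values are medians from duplicate plates. Each reflects relative viability, defined as the nuclei count of treated wells over that of vehicle wells. Lung cancer cell lines in 1536-well plates were pin-tool dosed one day after seeding with one drug alone or with a fixed anchor-drug dose plus five library-drug doses (not always all listed) in √10 steps, then fixed, stained and imaged at 4× after 5 days.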

Compound in the experiment “IPA-3 + Alpelisib”: C1=CC=C2C(=C1)C=CC(=C2SSC3=C(C=CC4=CC=CC=C43)O)O [IPA-3] + Cc1nc(NC(=O)N2CCC[C@H]2C(N)=O)sc1-c1ccnc(C(C)(C)C(F)(F)F)c1 [Alpelisib] (partner 2 µM)
The method in brief:
as §1

Compound in the experiment “Doramapimod + Alpelisib”: Cc1ccc(-n2nc(C(C)(C)C)cc2NC(=O)Nc2ccc(OCCN3CCOCC3)c3ccccc23)cc1 [Doramapimod] + Cc1nc(NC(=O)N2CCC[C@H]2C(N)=O)sc1-c1ccnc(C(C)(C)C(F)(F)F)c1 [Alpelisib] (partner 2 µM)
The method in brief: as §1

Compound in the experiment “RAF265 + Alpelisib”: Cn1c(Nc2ccc(C(F)(F)F)cc2)nc2cc(Oc3ccnc(-c4ncc(C(F)(F)F)[nH]4)c3)ccc21 [RAF265] + Cc1nc(NC(=O)N2CCC[C@H]2C(N)=O)sc1-c1ccnc(C(C)(C)C(F)(F)F)c1 [Alpelisib] (partner 2 µM)
The method in brief: as §1

As to PC-14, the relative viability with Doramapimod + Crizotinib (first compound 0.02 µM) was 0.896; with Doramapimod + Crizotinib (first compound 0.06325 µM), 0.913; with Doramapimod + Crizotinib (first compound 0.2 µM) it was 0.906; with Doramapimod + Crizotinib (first compound 0.6325 µM) it was 0.855; with Doramapimod + Crizotinib (first compound 2 µM), 0.853; in the experiment with IPA-3 + Alpelisib (first compound 0.2 µM), 1.15. Moreover, the relative viability with IPA-3 + Alpelisib (first compound 0.6325 µM) was 0.885; with IPA-3 + Alpelisib (first compound 2 µM), 1; with IPA-3 + Alpelisib (first compound 6.325 µM), 0.88; with IPA-3 + Alpelisib (first compound 20 µM) it was 1.1; with Doramapimod + Alpelisib (first compound 0.02 µM), 1.01; with Doramapimod + Alpelisib (first compound 0.06325 µM), 1.06. Moreover, the relative viability with Doramapimod + Alpelisib (first compound 0.2 µM) is 0.892; in the experiment with Doramapimod + Alpelisib (first compound 0.6325 µM) it was 0.995; with Doramapimod + Alpelisib (first compound 2 µM) it was 0.89; with RAF265 + Alpelisib (first compound 0.01 µM), 0.964; in the experiment with RAF265 + Alpelisib (first compound 0.03162 µM) it was 0.907; with RAF265 + Alpelisib (first compound 0.1 µM) it was 0.854. The figures for the relative viability in the experiment with RAF265 + Alpelisib (first compound 0.3162 µM) and with RAF265 + Alpelisib (first compound 1 µM) were 0.35 and 0.579, respectively.

As for RERF-LC-KJ, the relative viability was found to be 0.88 in the experiment with Doramapimod + Crizotinib (first compound 0.02 µM); 0.888 with Doramapimod + Crizotinib (first compound 0.06325 µM); 0.826 with Doramapimod + Crizotinib (first compound 0.2 µM); 0.789 in the experiment with Doramapimod + Crizotinib (first compound 0.6325 µM); 0.823 in the experiment with Doramapimod + Crizotinib (first compound 2 µM); 0.933 in the experiment with IPA-3 + Alpelisib (first compound 0.2 µM). Moreover, the relative viability is 0.807 in the experiment with IPA-3 + Alpelisib (first compound 0.6325 µM); 0.83 with IPA-3 + Alpelisib (first compound 2 µM); 0.668 with IPA-3 + Alpelisib (first compound 6.325 µM); 0.928 in the experiment with IPA-3 + Alpelisib (first compound 20 µM); 0.857 with Doramapimod + Alpelisib (first compound 0.02 µM); 0.865 with Doramapimod + Alpelisib (first compound 0.06325 µM). Besides, the relative viability in the experiment with Doramapimod + Alpelisib (first compound 0.2 µM) is 0.765; with Doramapimod + Alpelisib (first compound 0.6325 µM), 1.01; with Doramapimod + Alpelisib (first compound 2 µM) it was 0.867; with RAF265 + Alpelisib (first compound 0.01 µM), 0.791; with RAF265 + Alpelisib (first compound 0.03162 µM) it was 0.573; with RAF265 + Alpelisib (first compound 0.1 µM), 0.851. Besides, the results for the relative viability with RAF265 + Alpelisib (first compound 0.3162 µM) and with RAF265 + Alpelisib (first compound 1 µM) were 0.625 and 0.584, respectively.

Consider SK-LU-1, for which the relative viability in the experiment with Doramapimod + Crizotinib (first compound 0.02 µM) came out at 0.915; with Doramapimod + Crizotinib (first compound 0.06325 µM) it was 0.929; with Doramapimod + Crizotinib (first compound 0.2 µM), 0.909; with Doramapimod + Crizotinib (first compound 0.6325 µM), 0.83; in the experiment with Doramapimod + Crizotinib (first compound 2 µM) it was 0.92; with IPA-3 + Alpelisib (first compound 0.2 µM), 1.49. The relative viability is 0.974 in the experiment with IPA-3 + Alpelisib (first compound 2 µM); 0.859 in the experiment with IPA-3 + Alpelisib (first compound 6.325 µM); 0.739 with IPA-3 + Alpelisib (first compound 20 µM); 0.901 in the experiment with Doramapimod + Alpelisib (first compound 0.02 µM); 0.925 with Doramapimod + Alpelisib (first compound 0.06325 µM); 1.14 with Doramapimod + Alpelisib (first compound 0.2 µM). For the same cell line, the relative viability with Doramapimod + Alpelisib (first compound 0.6325 µM) was 1.19; in the experiment with Doramapimod + Alpelisib (first compound 2 µM), 0.866; with RAF265 + Alpelisib (first compound 0.01 µM), 0.972; with RAF265 + Alpelisib (first compound 0.03162 µM), 0.494; with RAF265 + Alpelisib (first compound 0.1 µM), 0.493; with RAF265 + Alpelisib (first compound 0.3162 µM), 0.506. Also, in the experiment with RAF265 + Alpelisib (first compound 1 µM), the relative viability stood at 0.363.

Consider SK-MES-1, for which the relative viability with Doramapimod + Crizotinib (first compound 0.02 µM) came to 1.01; with Doramapimod + Crizotinib (first compound 0.06325 µM), 0.977; in the experiment with Doramapimod + Crizotinib (first compound 0.2 µM), 0.933; with Doramapimod + Crizotinib (first compound 0.6325 µM), 0.917; in the experiment with Doramapimod + Crizotinib (first compound 2 µM), 0.887; in the experiment with IPA-3 + Alpelisib (first compound 0.2 µM), 1.17. Further, the relative viability with IPA-3 + Alpelisib (first compound 0.6325 µM) is 0.88; with IPA-3 + Alpelisib (first compound 2 µM) it was 0.868; with IPA-3 + Alpelisib (first compound 20 µM), 0.951; with Doramapimod + Alpelisib (first compound 0.02 µM), 0.87; in the experiment with Doramapimod + Alpelisib (first compound 0.06325 µM), 0.765; with Doramapimod + Alpelisib (first compound 0.2 µM) it was 0.766. Further, the relative viability with Doramapimod + Alpelisib (first compound 0.6325 µM) was determined as 0.869; with Doramapimod + Alpelisib (first compound 2 µM), 0.675; with RAF265 + Alpelisib (first compound 0.01 µM), 0.942; in the experiment with RAF265 + Alpelisib (first compound 0.03162 µM), 0.807; with RAF265 + Alpelisib (first compound 0.1 µM), 0.337; in the experiment with RAF265 + Alpelisib (first compound 0.3162 µM) it was 0.242. In addition, the relative viability in the experiment with RAF265 + Alpelisib (first compound 1 µM) was found to be 0.183.

Regarding SW 1573, the relative viability with Doramapimod + Crizotinib (first compound 0.02 µM) came to 0.827; with Doramapimod + Crizotinib (first compound 0.06325 µM) it was 0.613; with Doramapimod + Crizotinib (first compound 0.2 µM), 0.646; with Doramapimod + Crizotinib (first compound 0.6325 µM), 0.75; with Doramapimod + Crizotinib (first compound 2 µM) it was 0.743; in the experiment with IPA-3 + Alpelisib (first compound 0.2 µM), 0.891. The relative viability with IPA-3 + Alpelisib (first compound 0.6325 µM) came out at 0.777; with IPA-3 + Alpelisib (first compound 2 µM) it was 0.8; with IPA-3 + Alpelisib (first compound 6.325 µM), 0.726; with IPA-3 + Alpelisib (first compound 20 µM), 0.988; with Doramapimod + Alpelisib (first compound 0.02 µM), 0.766; with Doramapimod + Alpelisib (first compound 0.06325 µM) it was 0.712. The relative viability came out at 0.644 with Doramapimod + Alpelisib (first compound 0.2 µM); 0.726 in the experiment with Doramapimod + Alpelisib (first compound 0.6325 µM); 0.549 in the experiment with Doramapimod + Alpelisib (first compound 2 µM); 1 with RAF265 + Alpelisib (first compound 0.01 µM); 0.638 with RAF265 + Alpelisib (first compound 0.03162 µM); 0.645 with RAF265 + Alpelisib (first compound 0.1 µM). Also, the relative viability with RAF265 + Alpelisib (first compound 0.3162 µM) came to 0.574; in the experiment with RAF265 + Alpelisib (first compound 1 µM), 0.343.
